Values joined by “and” are separate entries in the source; they are usually repeats but may differ in a detail not shown here. Identical values can stand only once. Like-named read-outs stand apart in the source and are kept apart here.
Experiments:
[1] = tested on: SARS-CoV-2 (Beta, B.1.351); assay: microbe, parasite or virus in culture; format: cell-based; conditions: for % Inhibition: beta, listed as Remdsivir
[2] = tested on: COVID-19; design: method as in PMID 34937145; conditions: administered early to non-hospitalized, high-risk patients ref 27; cited from earlier work
[3] = tested on: SARS-CoV-2 (Omicron, B.1.1.529); conditions: Omicon, Vero E6, replicates, listed as Remdsivir
[4] = CCK-8 cell viability assay; format: cell-based, African green monkey; conditions: African green monkey; Vero E6 cells, 48 h, CCK8
Method: To investigate the effect of drugs on cell viability, Vero E6 cells were seeded in 96-well plates at a density of 20,000 cells per well and were treated with drugs at indicated concentrations (0, 0.01, 0.1, 1, 5, 10, 50, 75, 100, 200 μM) for 48 hours. Cell viability was tested by using Cell Counting Kit-8 (CCK-8, Bimake, B34302). The figures were plotted from cell viability percentage versus the drug concentrations using GraphPad Prism 6 software.
Fig. S4. Cytotoxicity assay of compounds in Vero E6 cells.
Vero E6 cells were plated in 96-well plates and treated with increasing concentrations
of each indicated compound, ranging from 0 to 200 μM, for 48 hours. Cell viability was
tested using Cell Counting Kit-8 (CCK-8). Data are presented as mean ± SD.

[5] = tested on: SARS-CoV-2 (Omicron, B.1.1.529); assay: microbe, parasite or virus in culture
[6] = tested on: SARS-CoV-2 (Delta, B.1.617.2); assay: microbe, parasite or virus in culture; format: cell-based; conditions: for % Inhibition: delta, listed as Remdsivir
[7] = tested on: SARS-CoV-2 (B.1); assay: Anti-SARS-CoV-2 activity in Vero E6 cells (viral yield by qRT-PCR); format: cell-based; conditions: for % Inhibition: listed as Remdsivir
[8] = Severe acute respiratory syndrome coronavirus 2, Vero C1008, read-out: EC90 (Confidence 95%)

CCC(CC)COC(=O)[C@H](C)N[P@](=O)(OC[C@H]1O[C@@](C#N)(c2ccc3c(N)ncnn23)[C@H](O)[C@@H]1O)Oc1ccccc1 [Remdesivir, remdesivir, reference compound]
EC50 ([1]; Severe acute respiratory syndrome coronavirus 2, Vero C1008, 48 h, read-out: EC50 in Vero E6 cells, SARS-CoV-2 (Beta, B.1.351)): 1.78 µM | inhibition at 0.01 µM ([1]; Severe acute respiratory syndrome coronavirus 2, Vero C1008, beta, 0.01 uM, Vero E6, replicates): 0% | inhibition at 0.1 µM ([1]; Severe acute respiratory syndrome coronavirus 2, Vero C1008, beta, 0.1 uM, Vero E6, replicates): 0% | inhibition at 0.25 µM ([1]; Severe acute respiratory syndrome coronavirus 2, Vero C1008, beta, 0.25 uM, Vero E6, replicates): 0% | inhibition at 0.5 µM ([1]; Severe acute respiratory syndrome coronavirus 2, Vero C1008, beta, 0.5 uM, Vero E6, replicates): 0% | inhibition at 2 µM ([1]; Severe acute respiratory syndrome coronavirus 2, Vero C1008, beta, 2 uM, Vero E6, replicates): 65.2% | inhibition at 5 µM ([1]; Severe acute respiratory syndrome coronavirus 2, Vero C1008, beta, 5 uM, Vero E6, replicates): 86.2% | inhibition at 10 µM ([1]; Severe acute respiratory syndrome coronavirus 2, Vero C1008, beta, 10 uM, Vero E6, replicates): 99.9% | inhibition at 50 µM ([1]; Severe acute respiratory syndrome coronavirus 2, Vero C1008, beta, 50 uM, Vero E6, replicates): 99.9% | EC90 ([1]; Severe acute respiratory syndrome coronavirus 2, Vero C1008, read-out: EC90 (Confidence 95%), Vero-E6, Beta B.1.351): 5.02 µM | % Inhibition ([1]; 1 uM, Vero E6, replicates): 35.9868% and 14.2725% | % Inhibition ([1]; 2 uM, Vero E6, replicates): 49.345% | % Inhibition ([1]; 5 uM, Vero E6, replicates): 85.4168% | % Inhibition ([1]; 10 uM, Vero E6, replicates): 99.9589% | % Inhibition ([1]; 50 uM, Vero E6, replicates): 99.9256% | reduction of the risk of hospitalization or death [2]: 87% | % Inhibition ([3]; 2.5 uM): 31.5626% and 77.85% and 88.9906% | % Inhibition ([3]; 5 uM): 96.6907% and 99.2675% | % Inhibition ([3]; 10 uM): 99.9718% and 99.9679% | CC50 at 48 h [4]: > 50 µM | EC50 ([5]; Severe acute respiratory syndrome coronavirus 2, Vero C1008, 48 h, read-out: EC50 in Vero E6 cells, SARS-CoV-2 (Omicron, B.1.1.529)): 1.24 µM | inhibition at 0.069 µM ([5]; Severe acute respiratory syndrome coronavirus 2, Vero C1008, Omicon, 0.069 uM, Vero E6, replicates): 0% | inhibition at 5 µM ([5]; Severe acute respiratory syndrome coronavirus 2, Vero C1008, Omicon, 5 uM, Vero E6, replicates): 96.9% | inhibition at 10 µM ([5]; Severe acute respiratory syndrome coronavirus 2, Vero C1008, Omicon, 10 uM, Vero E6, replicates): 100% | EC90 [5, 8]: 5.69 µM | EC50 ([6]; Severe acute respiratory syndrome coronavirus 2, Vero C1008, 48 h, read-out: EC50 in Vero E6 cells, SARS-CoV-2 (Delta, B.1.617.2)): 1.65 µM | inhibition at 0.01 µM ([6]; Severe acute respiratory syndrome coronavirus 2, Vero C1008, delta, 0.01 uM, Vero E6, replicates): 0% | inhibition at 0.1 µM ([6]; Severe acute respiratory syndrome coronavirus 2, Vero C1008, delta, 0.1 uM, Vero E6, replicates): 0% | inhibition at 0.25 µM ([6]; Severe acute respiratory syndrome coronavirus 2, Vero C1008, delta, 0.25 uM, Vero E6, replicates): 0% | inhibition at 0.5 µM ([6]; Severe acute respiratory syndrome coronavirus 2, Vero C1008, delta, 0.5 uM, Vero E6, replicates): 0% | inhibition at 1 µM ([6]; Severe acute respiratory syndrome coronavirus 2, Vero C1008, delta, 1 uM, Vero E6, replicates): 55.7% | inhibition at 2 µM ([6]; Severe acute respiratory syndrome coronavirus 2, Vero C1008, delta, 2 uM, Vero E6, replicates): 58% | inhibition at 5 µM ([6]; Severe acute respiratory syndrome coronavirus 2, Vero C1008, delta, 5 uM, Vero E6, replicates): 77.1% | inhibition at 10 µM ([6]; Severe acute respiratory syndrome coronavirus 2, Vero C1008, delta, 10 uM, Vero E6, replicates): 99.2% | inhibition at 50 µM ([6]; Severe acute respiratory syndrome coronavirus 2, Vero C1008, delta, 50 uM, Vero E6, replicates): 99.9% | EC90 ([6]; Severe acute respiratory syndrome coronavirus 2, Vero C1008, read-out: EC90 (Confidence 95%), Vero-E6, Delta B.1.617.2): 7.34 µM | % Inhibition ([6]; 1 uM, Vero E6, replicates): 43.4129% | % Inhibition ([6]; 2 uM, Vero E6, replicates): 46.5254% | % Inhibition ([6]; 5 uM, Vero E6, replicates): 77.4749% | % Inhibition ([6]; 10 uM, Vero E6, replicates): 96.2382% | % Inhibition ([6]; 50 uM, Vero E6, replicates): 99.3849% | % Inhibition ([7]; B.1, 2 uM, Vero E6, replicates, 2 µM): 36.1424% | % Inhibition ([7]; B.1, 5 uM, Vero E6, replicates, 5 µM): 93.823% | % Inhibition ([7]; B.1, 10 uM, Vero E6, replicates, 10 µM): 98.7241% | % Inhibition ([7]; B.1, 50 uM, Vero E6, replicates, 50 µM): 99.0519% | inhibition at 0.01 µM ([7]; Severe acute respiratory syndrome coronavirus 2, Vero C1008, B.1, 0.01 uM, Vero E6, replicates): 0% | inhibition at 0.1 µM ([7]; Severe acute respiratory syndrome coronavirus 2, Vero C1008, B.1, 0.1 uM, Vero E6, replicates): 0% | inhibition at 0.25 µM ([7]; Severe acute respiratory syndrome coronavirus 2, Vero C1008, B.1, 0.25 uM, Vero E6, replicates): 0% | inhibition at 0.5 µM ([7]; Severe acute respiratory syndrome coronavirus 2, Vero C1008, B.1, 0.5 uM, Vero E6, replicates): 0% | inhibition at 1 µM ([7]; Severe acute respiratory syndrome coronavirus 2, Vero C1008, B.1, 1 uM, Vero E6, replicates): 0% | inhibition at 2 µM ([7]; Severe acute respiratory syndrome coronavirus 2, Vero C1008, B.1, 2 uM, Vero E6, replicates): 39.1% | inhibition at 5 µM ([7]; Severe acute respiratory syndrome coronavirus 2, Vero C1008, B.1, 5 uM, Vero E6, replicates): 94.6% | inhibition at 10 µM ([7]; Severe acute respiratory syndrome coronavirus 2, Vero C1008, B.1, 10 uM, Vero E6, replicates): 98.6% | inhibition at 50 µM ([7]; Severe acute respiratory syndrome coronavirus 2, Vero C1008, B.1, 50 uM, Vero E6, replicates): 99.2% | EC90 [7, 8]: 4.25 µM | EC50 ([7]; Severe acute respiratory syndrome coronavirus 2, Vero C1008, MOI 0.05, 48 h): 2.28 µM

— article PMC9161374 (Science Translational Medicine, 2022)
